Starred links: 1 amine or outer side, 2 acyl side, 3 side chain; linkers in the order of their positions; H or OH if unused. Positions of bridges follow the written chain, without caps; N, C: chain ends. Residues, ends and D or L forms follow the SMILES beside them. *: point of attachment. C18 diacid = O=C(O)CCCCCCCCCCCCCCCCC(=O)*; γGlu = O=C(O)[C@H](CCC(=O)[*:2])N[*:1]; AEEA = NCCOCCOCC(=O)O
Target: T1, human natriuretic peptide receptor 2 (hNPR2) (Homo sapiens, UniProt P20594)
T1 construct: expressed in transfected cells; host or cells: HEK293 (ATCC CRL-1573), clone 35, co-transfected with pGloSensor-42F
T1 sequence (P20594 23-1047): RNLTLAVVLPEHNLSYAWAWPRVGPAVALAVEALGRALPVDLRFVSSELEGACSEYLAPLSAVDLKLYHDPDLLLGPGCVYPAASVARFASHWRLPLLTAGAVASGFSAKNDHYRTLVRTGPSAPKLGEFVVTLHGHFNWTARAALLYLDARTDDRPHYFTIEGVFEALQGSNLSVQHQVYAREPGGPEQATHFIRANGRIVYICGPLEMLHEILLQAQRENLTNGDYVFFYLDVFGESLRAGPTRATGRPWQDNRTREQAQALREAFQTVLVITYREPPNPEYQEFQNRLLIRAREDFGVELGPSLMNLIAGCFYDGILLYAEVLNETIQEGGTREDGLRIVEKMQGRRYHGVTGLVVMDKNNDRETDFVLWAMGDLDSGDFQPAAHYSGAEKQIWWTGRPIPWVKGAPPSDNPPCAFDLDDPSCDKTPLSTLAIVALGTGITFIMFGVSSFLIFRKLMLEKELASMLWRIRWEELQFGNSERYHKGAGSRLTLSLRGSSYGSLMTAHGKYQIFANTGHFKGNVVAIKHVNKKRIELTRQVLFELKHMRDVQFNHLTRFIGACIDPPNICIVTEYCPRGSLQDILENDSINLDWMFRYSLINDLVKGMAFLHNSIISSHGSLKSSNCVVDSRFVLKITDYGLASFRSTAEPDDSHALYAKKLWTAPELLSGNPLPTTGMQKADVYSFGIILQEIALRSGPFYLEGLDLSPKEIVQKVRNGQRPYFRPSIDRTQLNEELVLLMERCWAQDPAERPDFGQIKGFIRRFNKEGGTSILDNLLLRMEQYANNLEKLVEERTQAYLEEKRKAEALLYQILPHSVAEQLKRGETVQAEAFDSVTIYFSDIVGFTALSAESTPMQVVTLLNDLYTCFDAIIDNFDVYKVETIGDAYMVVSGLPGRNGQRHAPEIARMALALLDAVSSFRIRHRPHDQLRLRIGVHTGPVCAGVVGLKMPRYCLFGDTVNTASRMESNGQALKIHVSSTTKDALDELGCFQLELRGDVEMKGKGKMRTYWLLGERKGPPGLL
Test: In vitro hNPR2 activity assay (cGMP GloSensor reporter, HEK293)
Format: cell-based
Conditions: for hNPR2 0% HSA. [EC50% rel CNP]: potency relative to CNP22 (0065)
Outline: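 Potency is the EC50 from a four-parameter logistic fit, also expressed relative to the in-plate CNP22 control (×100), with at least two replicates. Compounds (ten concentrations, […], HSA-free diluent with 1% OVA, 0.01% Tween20) were incubated 30 min at 37 °C on HEK293 cells co-expressing hNPR2 and a GloSensor cGMP luciferase. Luminescence detected with Bright-Glo.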

Row | SMILES | EC50 (0% HSA, HEK293-hNPR2/GloSensor cells) [nM] | hNPR2 0% HSA. [EC50% rel CNP] [%]
1 | CC[C@H](C)[C@@H]1NC(=O)[C@H](CCCNC(=N)N)NC(=O)[C@H](CC(=O)O)NC(=O)[C@H](CC(C)C)NC(=O)[C@H](CCCCN)NC(=O)[C@H](CC(C)C)NC(=O)CNC(=O)[C@H](Cc2ccccc2)NC(=O)[C@@H](NC(=O)CNC(=O)[C@H](CCCCN)NC(=O)[C@H](CO)NC(=O)[C@H](CC(C)C)NC(=O)CNC(=O)[C@H](CCCCN)NC(=O)[C@H](CCC(=O)O)NC(=O)[C@H](CCC(N)=O)NC(=O)[C@H](C)NC(=O)CNC(=O)[C@H](Cc2c[nH]cn2)NC(=O)[C@H](CCC(=O)O)NC(=O)COCCOCCNC(=O)COCCOCCNC(=O)CC[C@H](NC(=O)CCCCCCCCCCCCCCCCC(=O)O)C(=O)O)CSSC[C@@H](C(=O)O)NC(=O)CNC(=O)[C@H](CC(C)C)NC(=O)CNC(=O)[C@H](CO)NC(=O)[C@H](CC(C)C)NC(=O)[C@H](CO)NC(=O)CNC1=O [compound 1236] ({C18 diacid-γGlu-AEEA-AEEA}-EHGAQEKGLSKGCFGLKLDRIGSLSGLGC-OH; disulfide 13-29; C-terminus assumed) | 3.4 | 6.1
2 | CC[C@H](C)[C@@H]1NC(=O)[C@H](CCCNC(=N)N)NC(=O)[C@H](CC(=O)O)NC(=O)[C@H](CC(C)C)NC(=O)[C@@H]2CCCN2C(=O)[C@H](CC(C)C)NC(=O)CNC(=O)[C@H](Cc2ccccc2)NC(=O)[C@@H](NC(=O)CNC(=O)[C@H](CCC(N)=O)NC(=O)[C@H](CO)NC(=O)[C@H](CC(C)C)NC(=O)CNC(=O)[C@H](CCCCN)NC(=O)[C@H](CCCCN)NC(=O)[C@H](CCC(N)=O)NC(=O)[C@H](C)NC(=O)CNC(=O)[C@H](CCC(=O)O)NC(=O)[C@H](Cc2ccc(O)cc2)NC(=O)[C@H](CCCCN)NC(=O)[C@H](CCCNC(=N)N)NC(=O)[C@H](C)NC(=O)[C@H](CCC(N)=O)NC(=O)[C@@H]2CCCN2C(=O)[C@H](Cc2c[nH]cn2)NC(=O)[C@H](CCC(=O)O)NC(=O)[C@H](CCC(N)=O)NC(=O)COCCOCCNC(=O)COCCOCCNC(=O)CC[C@H](NC(=O)CC[C@H](NC(=O)CCCCCCCCCCCCCCCCC(=O)O)C(=O)O)C(=O)O)CSSC[C@@H](C(=O)O)NC(=O)CNC(=O)[C@H](CC(C)C)NC(=O)CNC(=O)[C@H](CO)NC(=O)[C@H](CC(C)C)NC(=O)[C@H](CO)NC(=O)CNC1=O [compound 1396] ({C18 diacid-γGlu-γGlu-AEEA-AEEA}-QEHPQARKYEGAQKKGLSQGCFGLPLDRIGSLSGLGC-OH; disulfide 21-37) |  | 43.1
3 | CC[C@H](C)[C@@H]1NC(=O)[C@H](CCCNC(=N)N)NC(=O)[C@H](CC(=O)O)NC(=O)[C@H](CC(C)C)NC(=O)[C@@H]2CCCN2C(=O)[C@H](CC(C)C)NC(=O)CNC(=O)[C@H](Cc2ccccc2)NC(=O)[C@@H](NC(=O)CNC(=O)[C@H](Cc2c[nH]cn2)NC(=O)[C@H](CO)NC(=O)CNC(=O)CNC(=O)[C@H](CCCCN)NC(=O)[C@H](CCCCN)NC(=O)[C@H](CCC(N)=O)NC(=O)[C@H](C)NC(=O)CNC(=O)[C@H](CCC(=O)O)NC(=O)[C@H](Cc2ccc(O)cc2)NC(=O)COCCOCCNC(=O)COCCOCCNC(=O)COCCOCCNC(=O)COCCOCCNC(=O)CC[C@H](NC(=O)CCCCCCCCCCCCCCCCC(=O)O)C(=O)O)CSSC[C@@H](C(=O)O)NC(=O)CNC(=O)[C@H](CC(C)C)NC(=O)CNC(=O)[C@H](CO)NC(=O)[C@H](CC(C)C)NC(=O)[C@H](CO)NC(=O)CNC1=O [compound 1431] ({C18 diacid-γGlu-AEEA-AEEA-AEEA-AEEA}-YEGAQKKGGSHGCFGLPLDRIGSLSGLGC-OH; disulfide 13-29; C-terminus assumed) |  | 14.3
